# Laboratory results taken from patent publication US20060165670A1, “Synbiotic combination” (priority 2003, published 2006).
# Columns and labels:
# [1] = tested on: Lactobacilli; test: Continuous culture chemostat with faecal inocula and antimicrobials; assay type: cell-based; conditions: 1 gl^−1 in medium
# Method: (§1) (i) Continuous culture system: Three chemostats are set up in a parallel; each is maintained under nitrogen gas, at 37° C., pH 6.5 and a dilution rate of 0.066 h^−1. These conditions are set to resemble conditions typically found in the distal region of the human colon. The chemostats are fed with a control growth medium which comprised (gl^−1 in distilled water): yeast extract 2, peptone water 2, NaCl 0.1, K2HPO4 0.04, KH2PO4 0.04, MgSO4.7H2O 0.01, CaCl2.H2O 0.01, NaHCO3 2, Tween 80 2, hemin 0.05, Vitamin K1 0.01, cysteine.HCl 0.5, bile salts 0.5, glucose 0.4, starch 3, pectin 2 and arabinogalactan 1. The medium is autoclaved at 121° C. for 30 min and, whilst still hot, placed under nitrogen gas. After the medium has cooled, 1 gl^−1 of filter sterilised tetracycline or 1 gl^−1 of filter sterilised nystatin is aseptically added to the medium reservoir. Control chemostats with no antimicrobials added are also run. […]
# (§2) (iii) Microbial culture techniques: A sample is taken from each fecal slurry used as inocula and 1 ml samples are also removed from each chemostat when the fermentation system has reached steady state (after 164 h). […] After 24-48 h of Incubation aerobic colonies are counted and after 48-72 h of incubation anaerobic plates are enumerated. […]
# [2] = tested on: yeasts; test: as above; assay type: cell-based; conditions: 1 gl^−1 in medium, compared to control chemostats
# Method: as §1, §2
smiles,measurement,setting,value
C[C@@H]1[C@H](O)[C@@H](C)/C=C/C=C/CC/C=C/C=C/C=C/C=C/C(O[C@H]2O[C@H](C)[C@@H](O)[C@H](N)[C@@H]2O)CC2O[C@](O)(CC(O)C(O)CCC(O)CC(O)CC(O)CC(=O)O[C@H]1C)CC(O)C2C(=O)O (some centres unmarked) [nystatin],effect on lactobacilli,[1],reduction in lactobacilli
same,effect on yeasts,[2],yeasts are inhibited
